Experimental data as given in US8598132B2, “Glycosylated indolocarbazoles, method for obtaining same and uses thereof” (Universidad de Oviedo, priority 2008, dated 2013).

Assays:
Assay type in all cases: cell-based
A549 (lung) = assay: SRB anti-tumour (growth inhibition) assay, A549; conditions: Homo sapiens, 48 h exposure, read-out: GI50 (concentration inhibiting 50% of cell growth)
Procedure: (§1) The compounds generated were tested against a series of cell lines from tumours. It quantitatively determined the cell growth and the viability, using a colorimetric assay type, using the reaction with sulforhodamine B (SRB), according to the technique described by Faircloth et al. (Journal of Tissue and Culture Methods 1988, 11, 201-205).
(§2) 96-well microtitre plates are inoculated with cells (5×10^3 cells per well) in aliquots of 195 μl of medium, incubating them during 18 h, in a medium without added compound, to allow the cells to adhere to the surface. Next, the compounds to be tested are added, in samples of 5 μl, at a range of concentrations of 10 to 10^−8 μg/ml, dissolved in DMSO/EtOH (0.2% in PS buffer). After 48 h exposure, the anti-tumour effect is measured using the Sulforhodamine B (SRB) technique: the cells are fixed adding 50 μl of cold […] (50%) (w/v) and it is incubated for 60 min. at 4° C. The plates are washed with deionized water and dried. 100 μl of SRB solution (0.4% w/v in 1% acetic acid) to each well and it is incubated during 10 min. at ambient temperature. The non-bound SRB is eliminated, washing with 1% acetic acid. The plates are air dried and the bound colorant is dissolved with Tris buffer. The optical densities are read in an automatic plate spectrophotometer reader at a wavelength of 490 nm.
(§3) For the compounds of formula (III), (IV), (V), (VI), (VII), (VIII), (IX) and the compounds of formula (XII), (XIII), (XIV), (XV), (XVI) and (XVIII).

HT29 (colon) = assay: SRB anti-tumour (growth inhibition) assay, HT29; conditions: Homo sapiens, HT-29, 48 h exposure, read-out: GI50 (concentration inhibiting 50% of cell growth)
Procedure: as §1, §2, §3

MDA-MB-231 (breast) = assay: SRB anti-tumour (growth inhibition) assay, MDA-MB-231; conditions: Homo sapiens, 48 h exposure, read-out: GI50 (concentration inhibiting 50% of cell growth)
Procedure: as §1, §2, §3

**Q.** What does the source list for `CO[C@H]1[C@H](O)[C@@H](O)[C@H](n2c3c(Cl)cccc3c3c4c(c5c6cccc(Cl)c6[nH]c5c32)C(=O)NC4=O)O[C@@H]1CO` [RBM, rebeccamycin, reference compound]?
**A.** GI50 (A549 (lung)): 760 nM; GI50 (HT29 (colon)): 1550 nM

**Q.** `CN[C@@H]1C[C@H]2O[C@@](C)([C@@H]1OC)n1c3ccccc3c3c4c(c5c6ccccc6n2c5c31)C(=O)NC4` [STP, staurosporine, reference compound] was tested. Which GI50 (A549 (lung)) did it give?
**A.** Its GI50 is 8 nM.

**Q.** What about the GI50 (HT29 (colon)) of the same molecule?
**A.** The GI50 was 76 nM.

**Q.** And the GI50 (MDA-MB-231 (breast))?
**A.** The GI50 was 13 nM.
